One series addresses T1, human OATP1B3 (Homo sapiens, UniProt Q9NPD5).
T1 construct: expressed in transfected cells; host or cells: 293FT cells
T1 sequence (Q9NPD5 1-702): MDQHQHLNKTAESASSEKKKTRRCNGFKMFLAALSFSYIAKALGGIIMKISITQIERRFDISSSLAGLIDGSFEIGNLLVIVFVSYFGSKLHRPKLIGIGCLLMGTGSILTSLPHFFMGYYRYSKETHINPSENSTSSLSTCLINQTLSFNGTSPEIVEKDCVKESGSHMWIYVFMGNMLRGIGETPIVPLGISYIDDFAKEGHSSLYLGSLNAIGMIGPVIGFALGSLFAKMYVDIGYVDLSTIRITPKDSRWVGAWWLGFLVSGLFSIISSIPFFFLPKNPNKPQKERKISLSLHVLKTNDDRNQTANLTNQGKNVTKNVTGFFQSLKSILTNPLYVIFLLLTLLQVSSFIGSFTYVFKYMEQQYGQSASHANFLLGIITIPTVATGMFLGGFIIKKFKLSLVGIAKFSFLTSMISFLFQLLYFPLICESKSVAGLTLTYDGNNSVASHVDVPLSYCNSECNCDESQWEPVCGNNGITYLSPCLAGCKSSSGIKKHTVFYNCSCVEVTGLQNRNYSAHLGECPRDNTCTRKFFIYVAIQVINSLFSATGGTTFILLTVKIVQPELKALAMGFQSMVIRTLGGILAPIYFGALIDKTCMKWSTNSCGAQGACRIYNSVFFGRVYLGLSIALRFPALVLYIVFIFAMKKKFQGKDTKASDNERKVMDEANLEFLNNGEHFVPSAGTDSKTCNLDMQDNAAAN
In words: Uptake assay for radiolabeled substrates, human OATP1B3 expressing 293FT cells. Conditions: 10‐min incubation. Type of series: in vitro ADME. As for the experimental part:
(§1) 293FT cells were purchased from Thermo Fisher Scientific, Inc.. The cells were grown in Dulbecco's modified Eagle medium (supplemented with 4.5 g/L glucose and 2 mM L‐glutamine) at 37°C, 5% CO2, and 95% humidity. The cells were passaged 3 times per week by harvesting cells using trypsin and plating at a density of 1.0 × 10^4 cells/cm^2 in a 10 cm cell culture plate for maintenance culture. The 293FT cells were detached using trypsin and re‐seeded at a density of 2.5 × 10^4 cells/cm^2 in BioCoat™ Collagen I 6‐well plates (Corning Inc.) for transfection and then treated with 1.2 μg of plasmid vector and 3.2 μl of Lipofectamine™ 2000 Transfection Reagent (Thermo Fisher Scientific, Inc.) according to the manufacturer's instructions. After a 3‐h treatment, the transfection medium was replaced with a fresh cell culture medium and incubated at 37°C with 95% humidity and 5% CO2 until ready for the assay.
(§2) Transport experiments were conducted approximately 24 h post‐transfection. The experiments were initiated by aspirating culture medium and addition of pre‐warmed radiolabeled substrate solution (final 1.0% of acetonitrile or 0.9% of ethanol in phosphate‐buffered saline (PBS[−])) to each well. After a 10‐min incubation, cells were washed twice with 1 ml of ice‐cold PBS(−) and lysed with 700 μl of 1.0 M NaOH for 3 h or more at room temperature. The lysate was transferred to a 1.5‐ml tube, and neutralized with 350 μl of 2.0 M HCl and 350 μl of 2.0% sodium dodecyl sulfate (SDS) solution. From the lysate, 1.0 ml was transferred to a vial containing 10 ml of Emulsifier Scintillator Plus to measure the radioactivity in the LSC. The protein concentration of the cell lysate was also measured using a Pierce™ BCA Protein Assay Kit (Thermo Fisher Scientific, Inc.), which was used to normalize, according to the cell number, the radioactivity in the cell lysate extract. The protein assay was performed in duplicate. Each sample type was assayed in triplicate wells, and each run was performed twice. When the difference in mean uptake between OATP expressing cells and mock cells was more than 2 times, the OATP was judged to be involved in transportation of the substrate. […] Each sample type was assayed in triplicate wells.

For a further series, the target named is T2, human OATP1B1 (Homo sapiens, UniProt Q9Y6L6).
T2 construct: expressed in transfected cells; host or cells: 293FT cells
T2 sequence (Q9Y6L6 1-691): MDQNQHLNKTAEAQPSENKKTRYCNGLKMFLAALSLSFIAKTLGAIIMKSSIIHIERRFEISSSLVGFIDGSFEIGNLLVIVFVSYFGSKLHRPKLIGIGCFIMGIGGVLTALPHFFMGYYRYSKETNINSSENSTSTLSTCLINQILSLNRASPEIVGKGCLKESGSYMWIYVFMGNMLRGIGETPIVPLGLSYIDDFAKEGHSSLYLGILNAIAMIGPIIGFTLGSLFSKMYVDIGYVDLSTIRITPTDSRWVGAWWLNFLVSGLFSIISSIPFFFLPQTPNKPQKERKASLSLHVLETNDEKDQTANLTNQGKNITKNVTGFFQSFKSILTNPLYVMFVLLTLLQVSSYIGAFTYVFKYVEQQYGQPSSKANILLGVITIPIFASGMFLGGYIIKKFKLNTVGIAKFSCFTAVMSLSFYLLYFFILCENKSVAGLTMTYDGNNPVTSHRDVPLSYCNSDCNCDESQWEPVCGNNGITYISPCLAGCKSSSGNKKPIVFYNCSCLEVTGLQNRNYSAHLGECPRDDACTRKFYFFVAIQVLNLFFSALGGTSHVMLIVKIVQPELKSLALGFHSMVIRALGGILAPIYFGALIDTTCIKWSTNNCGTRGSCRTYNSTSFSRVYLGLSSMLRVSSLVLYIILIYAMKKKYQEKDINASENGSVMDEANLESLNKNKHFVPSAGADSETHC
In words: Uptake assay for radiolabeled substrates, human OATP1B1 expressing 293FT cells. Type of series: in vitro ADME. Conditions: for Ratio of uptake amount relative to the uptake into mock cells: 10‐min incubation. Here is the method:
as §1, §2

Consider `C[C@]12CC[C@@H]3c4ccc(OS(=O)(=O)O)cc4CC[C@H]3[C@@H]1CCC2=O` [E3S, Estrone 3‐sulfate], for which the “Ratio of uptake amount relative to the uptake into mock cells” value was found to be 2.7 on human OATP1B3 (Run_1); 3.3 on human OATP1B3 (Run_2); 69.9 on human OATP1B1 (Run_1, mean of 3 replicates); 81.9 on human OATP1B1 (Run_2, mean of 3 replicates). Further, the “Uptake, times higher than in mock cells” value on human OATP1B1 is reported as greater than 50 times.
Consider `C[C@]12CC[C@@H]3c4ccc(O)cc4CC[C@H]3[C@@H]1CC[C@@H]2O[C@@H]1O[C@H](C(=O)O)[C@@H](O)[C@H](O)[C@H]1O` [E217βG, Estradiol 17β‐D‐glucuronide], for which the “Ratio of uptake amount relative to the uptake into mock cells” value was 19.3 on human OATP1B3 (Run_1); 12.9 at human OATP1B3 (Run_2); 48.2 at human OATP1B1 (Run_1, mean of 3 replicates); 55.6 on human OATP1B1 (Run_2, mean of 3 replicates). Further, the “Uptake, times higher than in mock cells” value at human OATP1B1 is greater than 50 times.
`Cn1c(C(F)(F)F)cc(=O)n(-c2cc(Oc3cccnc3OCC(=O)O)c(Cl)cc2F)c1=O` [S‐3100‐CA]: the “Ratio of uptake amount relative to the uptake into mock cells” value at human OATP1B3 (Run_1) was 3.1; at human OATP1B3 (Run_2) it was 5.1; at human OATP1B1 (Run_1, mean of 3 replicates), 5.7; at human OATP1B1 (Run_2, mean of 3 replicates) it was 6.2.

Values taken from publication PMC8496750, “Identification of the organic anion transporting polypeptides responsible for the hepatic uptake of the major metabolite of epyrifenacil, S‐3100‐CA, in mice” (Pharmacology Research & Perspectives, 2021).
